{
  "source": "patent US20050118664A1",
  "about": "“Fluorogenic protease substrates” (priority 2002, published 2005)",
  "key": {"[1]": {"target": "T1, PfSUB-1 (Plasmodium falciparum, UniProt O61142)", "T1 construct": "made in house; host or cells: baculovirus/insect cell system", "T1 sequence (O61142 220-690)": "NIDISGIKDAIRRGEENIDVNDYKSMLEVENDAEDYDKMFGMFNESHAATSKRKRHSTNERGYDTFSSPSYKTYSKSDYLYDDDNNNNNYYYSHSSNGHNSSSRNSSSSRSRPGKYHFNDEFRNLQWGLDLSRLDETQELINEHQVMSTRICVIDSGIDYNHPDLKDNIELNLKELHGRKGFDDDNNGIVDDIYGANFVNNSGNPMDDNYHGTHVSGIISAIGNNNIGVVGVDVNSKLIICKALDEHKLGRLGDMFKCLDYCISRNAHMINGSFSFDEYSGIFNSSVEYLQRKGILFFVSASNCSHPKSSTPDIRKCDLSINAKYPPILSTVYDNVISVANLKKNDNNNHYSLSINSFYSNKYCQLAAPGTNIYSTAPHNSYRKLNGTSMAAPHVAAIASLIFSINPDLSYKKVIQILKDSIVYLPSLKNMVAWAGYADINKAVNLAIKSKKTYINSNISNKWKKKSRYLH", "test": "Multi-well fluorescence assay of PfSUB-1 activity with or without inhibitor", "assay_type": "biochemical", "experimental": "Purified recombinant PfSUB-1 at a range of concentrations in digestion buffer was dispensed into 50 μl aliquots in wells of white 96-well microtitre plates (FluoroNunc, NUNC). […] Plates were sealed and incubated at 37° C. for 18 h before being read on a Perkin Elmer LS-50B Luminescence spectrometer fitted with a LS50B WPR multi-plate reader accessory. Measurements were performed at an excitation wavelength of 552 nm, slit width 4 nm, and an emission wavelength of 580 nm, slit width 2.5 nm. Data collection was managed using Perkin Elmer FL WinLab software."}, "[2]": {"target": "T1, PfSUB-1", "settings": "from reference [4]; cited from earlier work"}, "[3]": {"target": "T1, PfSUB-1", "settings": "recombinant PfSUB-1 and authentic parasite-derived enzyme; reference [4]; cited from earlier work"}, "[4]": {"target": "T1, PfSUB-1", "test": "Protease digestion of fluorogenic substrate with recombinant PfSUB-1, fluorescence readout", "assay_type": "biochemical", "experimental": "(§1) All dye concentrations were determined from the absorption at 528 nm, with ε 52,000 M^−1cm^−1 [5]. Solutions of pepF1-R and its isomer derived from 5-IATR were prepared at ˜4 μM by dilution from stock DMSO solutions into digestion buffer (20 mM Tris, 50 mM NaCl, 12 mM CaCl2, 0.05% NP-40 (w/v), pH 7.6). It was necessary to include NP-40 detergent (Boehringer Mannheim) in all buffers containing the labelled peptides to avoid non-specific adsorption to glass and plasticware. Portions (4 ml) of each solution were treated with an aliquot of pronase (16 μl of 1 mg ml^−1 in the same buffer) and incubated at room temperature for 30 min. Absorbance spectra of these solutions and of the corresponding labelled peptides prior to pronase treatment were recorded (Beckman DU640 spectrophotometer).\n(§2) For protease digestion experiments, pepF1-R was diluted directly from DMSO stocks into digestion buffer (20 mM Tris-HCl pH 7.6, 50 mM NaCl, 12 mM CaCl2, ±0.05% w/v Nonidet P40). The DMSO concentration in digestion experiments was maintained below 1% (v/v).\nA sample of pepF1-R digested with PfSUB-1 was subjected to RP-HPLC-fractionation (Vydac 4.6 mm×25 cm C18 reversed-phase column, eluted at 1 ml min^−1 with a 4.5-58.5% (v/v) gradient of acetonitrile in 0.1% TFA). In addition to a small peak at 38.5 min corresponding to residual pepF1-R, two large new fluorescent peaks of equal height were evident, with retention times of 29.6 and 34.0 min.\n(§3) For these measurements, the compound was diluted 200-fold from a 230 μM stock solution in DMSO into 20 mM Tris-HCl pH 7.6. Identical spectra were obtained upon dilution into 20 mM acetate buffer, pH 5.0, or 20 mM ethanolamine pH 10.0. All buffer solutions contained 0.05% NP-40 detergent (w/v)."}, "[5]": {"test_system": "pronase", "test": "Protease digestion of fluorogenic substrate with pronase, fluorescence readout", "assay_type": "biochemical", "experimental": "as §1, §2, §3"}},
  "note": "Where a SMILES comes first, the peptide text is derived from it. The star is where a group is joined. X1 = CN(C)c1ccc2c(-c3cc(NC(=O)C*)ccc3C(=O)[O-])c3ccc(=[N+](C)C)cc-3oc2c1",
  "data": [
    {"compound": "O=C(O)c1cc[c]([Hg+])cc1.[OH-]", "note": "[pHMB, p-hydroxymercuribenzoate]", "values": [
      {"measurement": "fluorescence increase of pepF1-R with inhibitor-pre-treated PfSUB-1", "setting": "[1]; PfSUB-1 pre-treated with 1 mM inhibitor", "value": "no fluorescence increase"},
      {"measurement": "effect of inhibitor on PfSUB-1-dependent fluorescence increase of pepF1-R", "setting": "[1]; multi-well assay, 0.5 μl 100 mM pHMB per 50 μl well, 30 min pre-mix, 37° C. 18 h", "value": "virtually completely ablated"},
      {"measurement": "inhibition of PfSUB-1 (in words)", "setting": "[2]", "value": "potent inhibitor"}
    ]},
    {"compound": "Ac-LVSADNIDIS—OH: N-acetylated synthetic decapeptide based on the PfSUB-1 autocatalytic cleavage site (Ac-LVSADNIDIS-OH)", "values": [
      {"measurement": "cleavage by PfSUB-1 (in words)", "setting": "[3]", "value": "cleaved at the Asp-Asn bond"}
    ]},
    {"compound": "CC[C@H](C)[C@H](NC(=O)[C@H](CC(=O)O)NC(=O)[C@@H](NC(=O)[C@H](CC(N)=O)NC(=O)[C@H](CC(=O)O)NC(=O)[C@H](C)NC(=O)[C@H](CO)NC(=O)[C@@H](NC(=O)[C@H](CSCC(=O)Nc1ccc(C(=O)[O-])c(-c2c3ccc(=[N+](C)C)cc-3oc3cc(N(C)C)ccc23)c1)NC(C)=O)C(C)C)[C@@H](C)CC)C(=O)N[C@@H](CSCC(=O)Nc1ccc(C(=O)[O-])c(-c2c3ccc(=[N+](C)C)cc-3oc3cc(N(C)C)ccc23)c1)C(=O)O", "note": "[pepF1-R] (Ac-C(X1)VSADNIDIC(X1)-OH)", "values": [
      {"measurement": "solubility", "value": "≤ 50", "unit": "µM"},
      {"measurement": "increase in fluorescence on cleavage", "setting": "[4]; addition of recombinant PfSUB-1, 20 mM Tris-HCl pH 7.6, 0.05% NP-40, ex 552 nm, em 580 nm", "value": "greater than 25 fold"},
      {"measurement": "cleavage site of substrate (RP-HPLC / mass spectrometry of products)", "setting": "[4]; digested with PfSUB-1", "value": "cleavage at the Asp-Asn bond"},
      {"measurement": "fluorescence change on incubation with protease (in words)", "setting": "[4]; purified recombinant PfSUB-1, digestion buffer", "value": "dramatic, time-dependent increase in fluorescence"},
      {"measurement": "increase in fluorescence on cleavage", "setting": "[5]; addition of pronase, 20 mM Tris-HCl pH 7.6, 0.05% NP-40, ex 552 nm, em 580 nm", "value": "greater than 25 fold"},
      {"measurement": "fluorescence change on incubation with protease (in words)", "setting": "[5]; pronase, digestion buffer", "value": "dramatic, time-dependent increase in fluorescence"}
    ]}
  ]
}
